Read-outs that look alike come from different tables or passages of the source.
How the values were obtained:
[1] = test system: K562; assay: Cellular viability assay, CellTiter-Glo, K562; type: cell-based; details: Homo sapiens, Table 6 viability assay (method: reduced serum, 1% FBS)
Description: (§1) Cellular Viability of a Human Tumor Cell Lines
(§2) Human cancer cell lines NCI-H23, K562, NCI-H929, and MV-4-11 were cultured in media supplemented with 10% fetal bovine serum (FBS). To evaluate compound effect on cellular proliferation, cells were plated at 1,000 cells/well in 96-well tissue culture plates in a total volume of 90 uL medium supplemented with 10% FBS (Sigma, Saint Louis, Mo.). 24 hours later, 10 uL of compound (in a 2-fold serial dilution) is added to the cells for a top concentration of 50 uM and a final DMSO concentration <1%. After 72 hours, cell number was measured using the CellTiter-Glo Luminescent assay according to manufacturer's recommendations (Promega, Madison, Wis.). A viability assay in reduced serum was also conducted. Cells were plated at 5,000 cells/well in 96-well plates in a total volume of 100 uL medium supplemented with 10% FBS (Sigma, Saint Louis, Mo.). 24 hours later, the medium was replaced with 90 uL medium containing 1% FBS and the assay conducted as described. EC50 values were determined by plotting growth against compound concentration in a 4-parameter logisitic model in XLFit.

[2] = biological target: recombinant Mcl-1 (residues 172-327) (Homo sapiens (Human), UniProt Q07820); assay: Bak peptide binding assay, fluorescence polarization anisotropy competition (FITC-Bak), Mcl-1; details: FITC-Bak peptide 10 nM, Mcl-1 14 nM;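 note: displacement of labeled Bak peptide read by fluorescence anisotropy, 10-point threefold dilutions from 20 µM top dose in 5% DMSO, 90 min incubation at room temperature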
Sequence of recombinant Mcl-1 (residues 172-327) (Q07820 172-327): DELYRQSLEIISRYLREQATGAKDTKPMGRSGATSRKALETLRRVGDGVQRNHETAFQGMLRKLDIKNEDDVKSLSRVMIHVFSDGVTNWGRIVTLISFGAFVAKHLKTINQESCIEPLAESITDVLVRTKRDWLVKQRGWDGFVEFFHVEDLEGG
Description: Compound affinity was measured using a fluorescence polarization anisotropy competition assay. Anisotropy measurements were carried out in 384-well, black, flat-bottom plates (Greiner Bio-one, Monroe, N.C., USA). […] 10 nM FITC-Bak peptide and 14 nM recombinant Mcl-1 (residues 172-327) were added to assay buffer (3 mM dithiothreitol, 50 mM NaCl, 20 mM Tris, pH 7.5).

[3] = test system: NCI-H23; assay: Cellular viability assay, CellTiter-Glo, NCI-H23; type: cell-based; details: Homo sapiens, Table 6 viability assay (method: reduced serum, 1% FBS)
Description: as §1, §2

[4] = biological target: Bcl-2 (residues 1-207 A96T,G110R, Δ35-91, replaced with Bcl-xL35-50) (Homo sapiens (Human), UniProt P10415, DEL35-91/INS34DVEENRTEAPEGTESE); assay: Bak peptide binding assay, fluorescence polarization anisotropy competition (FITC-Bak), Bcl-2 selectivity; details: Table 4; FITC-Bak peptide 10 nM, Bcl-2 40 nM
Sequence of Bcl-2 (residues 1-207 A96T,G110R, Δ35-91, replaced with Bcl-xL35-50) (P10415 other isoform, or with tags, fused parts or gaps, stated change not applied): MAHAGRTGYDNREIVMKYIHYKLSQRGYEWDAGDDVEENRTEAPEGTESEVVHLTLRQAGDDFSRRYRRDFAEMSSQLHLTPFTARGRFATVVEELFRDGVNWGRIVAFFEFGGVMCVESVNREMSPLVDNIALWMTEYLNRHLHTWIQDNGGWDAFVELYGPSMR
Description: (§3) Bak Peptide Binding Assay
(§4) Compound affinity was measured using a fluorescence polarization anisotropy competition assay. Anisotropy measurements were carried out in 384-well, black, flat-bottom plates (Greiner Bio-one, Monroe, N.C., USA). The assay was run using a fluorescein isothiocyanate-labeled BH3 peptide derived from Bak (FITC-AHx-[…]-NH2) that was purchased from GenScript (Piscataway, N.J.) at >95% purity and used without further purification. 10 nM FITC-Bak peptide and 14 nM recombinant Mcl-1 (residues 172-327) were added to assay buffer (3 mM dithiothreitol, 50 mM NaCl, 20 mM Tris, pH 7.5). For selectivity assays, 40 nM Bcl-2 (residues 1-207^A96T,G110R, Δ35-91, replaced with Bcl-xL35-50) or 4 nM Bcl-xL (residues 1-209, loop 45-86 deleted) were incubated with 10 nM FITC-Bak in assay buffer.
(§5) Compounds are diluted in DMSO in a 10-point, 3-fold serial dilution scheme. 2.5 uL compound is added to 47.5 uL of assay buffer containing FITC-Bak and protein, for a final DMSO concentration of 5% and a top concentration of 20 uM. […] The plate was mixed and incubated for 90 minutes at room temperature. Anisotropy is measured at excitation wavelength 480 nm and emission wavelength 535 nm using an EnVision Multi-label plate reader (PerkinElmer, Wellesley, Mass., USA). Fluorescence anisotropy is plotted against compound concentration to generate an IC50 (inhibitor concentration at which 50% of bound peptide is displaced) by fitting the data to a 4-parameter logistic model using XLFit software (Guildford, Surrey, UK). IC50 is converted to a binding dissociation constant (Ki value) according to the formula of Wang Z. FEBS Lett (1996) 3, 245: Ki=[I]50/([L]50/Kd+[P]0/Kd+1) where [I]50 is the concentration of the free inhibitor at 50% inhibition, [L]50 is the concentration of the free labeled ligand at 50% inhibition, [P]0 is the concentration of the free protein at 0% inhibition, Kd represents the dissociation constant of the FITC peptide probe.

[5] = biological target: Bcl-xL (residues 1-209, loop 45-86 deleted) (Homo sapiens (Human), UniProt Q07817, DEL45-86); assay: Bak peptide binding assay, fluorescence polarization anisotropy competition (FITC-Bak), Bcl-xL selectivity; details: Table 4; FITC-Bak peptide 10 nM, Bcl-xL 4 nM
Sequence of Bcl-xL (residues 1-209, loop 45-86 deleted) (Q07817 other isoform, or with tags, fused parts or gaps del 45-86): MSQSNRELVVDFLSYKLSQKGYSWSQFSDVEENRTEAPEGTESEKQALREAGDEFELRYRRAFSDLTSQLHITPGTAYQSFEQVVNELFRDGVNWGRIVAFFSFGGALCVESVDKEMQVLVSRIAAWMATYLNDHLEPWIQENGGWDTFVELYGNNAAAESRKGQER
Description: as §3, §4, §5

[6] = test system: NCI-H929; assay: Cellular proliferation, CellTiter-Glo, NCI-H929; type: cell-based; details: Homo sapiens, 10% FBS, 72 hours
Description: as §1, §2

[7] = test system: K562; assay: Cellular proliferation, CellTiter-Glo, K562; type: cell-based; details: Homo sapiens, 10% FBS, 72 hours
Description: as §1, §2

[8] = test system: MV-4-11; assay: Cellular proliferation, CellTiter-Glo, MV-4-11; type: cell-based; details: Homo sapiens, MV4-11, 10% FBS, 72 hours, read-out: EC50 on cellular proliferation, NV-4-11
Description: as §1, §2

[9] = test system: NCI-H23; assay: Cellular proliferation, CellTiter-Glo, NCI-H23; type: cell-based; details: Homo sapiens, 10% FBS, 72 hours
Description: as §1, §2

[10] = test system: MV-4-11; assay: Cellular viability assay, CellTiter-Glo, MV-4-11; type: cell-based; details: Homo sapiens, MV4-11, Table 6 viability assay (method: reduced serum, 1% FBS), read-out: EC50 on cellular viability, NV-4-11
Description: as §1, §2

[11] = Table 3, binned ranges, read-out: Ki for inhibition of Mcl-1

`Cc1ccncc1-c1cccc2c(CCCOc3cc(C)c(Cl)c(C)c3)c(C)n(CCC(=O)O)c12` [Example 71, 3-(3-(3-(4-chloro-3,5-dimethylphenoxy)propyl)-2-methyl-7-(4-methylpyridin-3-yl)-1H-indol-1-yl)propanoic acid] showed an EC50 [1] of 7 µM, a Ki [2, 11] of no more than 0.1 µM and an EC50 [3] of 9.9 µM.
Molecule `Cc1cc(OCCCc2c(C)n(Cc3ccc(C(=O)O)o3)c3c(-c4c(C)n[nH]c4C)cccc23)cc(C)c1Cl` [Example 99, 5-((3-(3-(4-chloro-3,5-dimethylphenoxy)propyl)-7-(3,5-dimethyl-1H-pyrazol-4-yl)-2-methyl-1H-indol-1-yl)methyl)furan-2-carboxylic acid] has a Ki [4] of 2.9 µM, a Ki [2, 11] of no more than 0.1 µM and a Ki ([2]; Table 4, read-out: Ki Mcl-1) of 0.011 µM. The Ki [5] was 9.3 µM.
`Cc1cc(OCCCc2c(C(F)(F)F)n(Cc3ccc(CC(=O)O)cc3)c3c(-c4c(C)nn(C)c4C)cccc23)cc(C)c1Cl` [Example 117, 2-(4-((3-(3-(4-chloro-3,5-dimethylphenoxy)propyl)-2-(trifluoromethyl)-7-(1,3,5-trimethyl-1H-pyrazol-4-yl)-1H-indol-1-yl)methyl)phenyl)acetic acid] gave a Ki [2, 11] of no more than 0.1 µM, an EC50 [6] of 8.8 µM and an EC50 [7] of 14.8 µM.
Molecule `Cc1cc(OCCCc2c(C)n(CCC(=O)O)c3c(-c4c(C)n[nH]c4C)cccc23)cc(C)c1Cl` [Example 74, 3-(3-(3-(4-chloro-3,5-dimethylphenoxy)propyl)-7-(3,5-dimethyl-1H-pyrazol-4-yl)-2-methyl-1H-indol-1-yl)propanoic acid] has an EC50 [8] of 11.5 µM, an EC50 [1] of 2 µM and an EC50 [9] of 19.8 µM. The Ki [2, 11] was no more than 0.1 µM, the EC50 [3] was 5.4 µM and the EC50 [7] was 21.2 µM.
`Cc1cc(OCCCc2c(C)n(Cc3cccc(C(=O)O)c3)c3c(-c4c(C)n[nH]c4C)cccc23)cc(C)c1Cl` [Example 100, 3-((3-(3-(4-chloro-3,5-dimethylphenoxy)propyl)-7-(3,5-dimethyl-1H-pyrazol-4-yl)-2-methyl-1H-indol-1-yl)methyl)benzoic acid] gave a Ki [4] of 1.2 µM, a Ki [2, 11] of no more than 0.1 µM and a Ki ([2]; Table 4, read-out: Ki Mcl-1) of 0.01 µM. For the same molecule, the Ki [5] was 4.7 µM.
`Cc1cnccc1-c1cccc2c(CCCOc3cc(C)c(Cl)c(C)c3)c(C)n(CCC(=O)NS(C)(=O)=O)c12` [Example 83, 3-(3-(3-(4-chloro-3,5-dimethylphenoxy)propyl)-2-methyl-7-(3-methylpyridin-4-yl)-1H-indol-1-yl)-N-(methylsulfonyl)propanamide] gave an EC50 [10] of 1.9 µM and a Ki [2, 11] of no more than 0.1 µM.
Molecule `Cc1cc(OCCCc2c(C)n(CCC(=O)O)c3c(-c4c(C)nn(C)c4C)cccc23)cc(C)c1Cl` [Example 76, 3-(3-(3-(4-chloro-3,5-dimethylphenoxy)propyl)-2-methyl-7-(1,3,5-trimethyl-1H-pyrazol-4-yl)-1H-indol-1-yl)propanoic acid] has an EC50 [10] of 2.8 µM, an EC50 [8] of 16.2 µM and a Ki [4] of 7.1 µM. The Ki [2, 11] was no more than 0.1 µM, the Ki ([2]; Table 4, read-out: Ki Mcl-1) was 0.007 µM and the EC50 [7] was 17.1 µM. For the same molecule, the Ki [5] was 7.9 µM.
`Cc1cc(OCCCc2c(C)n(CCC(=O)O)c3c(-c4c(C)nn(C)c4C)c(Cl)ccc23)cc(C)c1Cl` [Example 104, 3-(6-chloro-3-(3-(4-chloro-3,5-dimethylphenoxy)propyl)-2-methyl-7-(1,3,5-trimethyl-1H-pyrazol-4-yl)-1H-indol-1-yl)propanoic acid] showed a Ki [2, 11] of no more than 0.1 µM, an EC50 [6] of 20 µM and an EC50 [7] of 24.8 µM.
Molecule `Cc1cc(OCCCc2c(C)n(CCC(=O)O)c3c(-c4ccnn4C)cccc23)cc(C)c1Cl` [Example 70, 3-(3-(3-(4-chloro-3,5-dimethylphenoxy)propyl)-2-methyl-7-(1-methyl-1H-pyrazol-5-yl)-1H-indol-1-yl)propanoic acid] has an EC50 [1] of 4.1 µM, a Ki [2, 11] of no more than 0.1 µM and an EC50 [3] of 5.8 µM.
For `Cc1cc(OCCCc2cn(CCC(=O)NS(C)(=O)=O)c3cc(Cl)ccc23)cc(C)c1Cl` [Example 20, 3-(6-chloro-3-(3-(4-chloro-3,5-dimethylphenoxy)propyl)-1H-indol-1-yl)-N-(methylsulfonyl)propanamide], the Ki [2, 11] was 0.101 to 0.299 µM, the Ki ([2]; Table 4, read-out: Ki Mcl-1) was 0.36 µM and the Ki [5] was 10 µM.
`Cc1cc(OCCCc2c(C)n(CCC(=O)O)c3c(-c4c(C)nn(C(C)C)c4C)cccc23)cc(C)c1Cl` [Example 78, 3-(3-(3-(4-chloro-3,5-dimethylphenoxy)propyl)-7-(1-isopropyl-3,5-dimethyl-1H-pyrazol-4-yl)-2-methyl-1H-indol-1-yl)propanoic acid] showed an EC50 [8] of 12.9 µM, a Ki [2, 11] of no more than 0.1 µM and an EC50 [7] of 10 µM.
With `Cc1cc(OCCCc2c(C)n(CCC(=O)O)c3cc(Cl)ccc23)cc(C)c1Cl` [Example 44, 3-(6-chloro-3-(3-(4-chloro-3,5-dimethylphenoxy)propyl)-2-methyl-1H-indol-1-yl)propanoic acid] the Ki [2, 11] was 0.101 to 0.299 µM, the Ki ([2]; Table 4, read-out: Ki Mcl-1) was 0.17 µM and the Ki [5] was 7.9 µM.
Molecule `Cc1cc(OCCCc2cn(CCC(=O)NS(C)(=O)=O)c3ccccc23)cc(C)c1Cl` [Example 18, 3-(3-(3-(4-chloro-3,5-dimethylphenoxy)propyl)-1H-indol-1-yl)-N-(methylsulfonyl)propanamide] has a Ki [2, 11] of 1 to 9.99 µM.
`CS(=O)(=O)NC(=O)CCn1cc(CCCOc2cccc3ccccc23)c2ccccc21` [Example 19, 3-(3-(3-(naphthalen-1-yloxy)propyl)-1H-indol-1-yl)-N-(methylsulfonyl)propanamide] was tested, and the Ki [2, 11] was 1 to 9.99 µM.
With `Cc1cc(OCCCc2c(C)n(CCC(=O)NS(=O)(=O)c3cccnc3)c3c(-c4c(C)nn(C)c4C)cccc23)cc(C)c1Cl` [Example 95, 3-(3-(3-(4-chloro-3,5-dimethylphenoxy)propyl)-2-methyl-7-(1,3,5-trimethyl-1H-pyrazol-4-yl)-1H-indol-1-yl)-N-(pyridin-3-ylsulfonyl)propanamide] the Ki [2, 11] was no more than 0.1 µM.
`Cc1cc(OCCCc2c(C(F)(F)F)n(Cc3ccc(C(=O)O)cc3)c3c(Br)cccc23)cc(C)c1Cl` [Example 116, 4-((7-bromo-3-(3-(4-chloro-3,5-dimethylphenoxy)propyl)-2-(trifluoromethyl)-1H-indol-1-yl)methyl)benzoic acid] gave a Ki [2, 11] of 0.101 to 0.299 µM.
Work on `Cc1cc(OCCCc2c(C)n(CCC(=O)O)c3c(-c4c(C)nn(Cc5ncccn5)c4C)cccc23)cc(C)c1Cl` [Example 110, 3-(3-(3-(4-chloro-3,5-dimethylphenoxy)propyl)-7-(3,5-dimethyl-1-(pyrimidin-2-ylmethyl)-1H-pyrazol-4-yl)-2-methyl-1H-indol-1-yl)propanoic acid] yielded a Ki [2, 11] of 1 to 9.99 µM.
For `CS(=O)(=O)NC(=O)Cn1cc(CCCOc2cccc3ccccc23)c2c(Cl)cccc21` [Example 28, 2-(4-chloro-3-(3-(naphthalen-1-yloxy)propyl)-1H-indol-1-yl)-N-(methylsulfonyl)acetamide], the Ki [2, 11] was 1 to 9.99 µM.
